# Measurements as given in patent publication EP4162935B1 (UNIVERSIDADE NOVA DE LISBOA, priority 2021, dated 2023).
# Assays:
# [1] = oral administration of a single dose of 300 mg/kg and 2000 mg/kg, 14 days of observation; cited from earlier work
# [2] = tested on: SARS-CoV-2; experiment: SARS-CoV-2 cell infection assay in Vero E6 cells, intracellular ATP levels (CellTiter-Glo) and cytopathic effect
structure (smiles),measurement,setting,value
"COc1ccc(-c2cc(=O)c3c(O)cc(O)cc3o2)cc1O [diosmetin, 5,7-Dihydroxy-2-(3-hydroxy-4-methoxyphenyl)-4H-benzopyran-4-one]",signs of toxicity or mortality,[1],did not demonstrate any signs of toxicity or mortality
same,duration of antiviral effect,[2]; 45 µM,72 h
same,optimal concentration,"[2]; same as in µM, Vero E6 cells, 30 pfu SARS-CoV-2, 72h",13.5 µg/mL
